Legend:
p-Ser15-p53 = experiment: Immuno-blotting of p-Ser15-p53; type: cell-based, human; conditions: for p-Ser15-p53 expression after suppressing PKA: senescent cells pre-treated with 10 mM PKA inhibitor Rp-cAMP for one hour; for p-Ser15-p53 expression: senescent cells, 30 μM LPA, 300 μM ACI, 10 mM AMPKI, 10 mM AICAR
Description: (A) and (B): Young and senescent cells were serum-starved for 2 days, followed by treatment with 10 mM of AMPK inhibitor […]) or 10 mM of AMPK activator AICAR(B) for 4 days. Proteins were extracted from the treated cells and the levels of AMPKα and p-Thr172-AMPKα, total p53, p-Ser15-p53 and […] measured by immuno-blotting. (C) and (D): Young cells (C) and senescent cells (D) were treated with 10 mM AMPKI or 10 mM AICAR and cultured for 4 days, followed by measurement of cell proliferation by cell counting. At this time, the experiment was repeated three times (p<0.001). (A) and (B) are photographs illustrating the results of immuno-blotting. Precisely, sub-cultured young cells (PD 18: A) and senescent cells (PD 64: B) were treated with 30 μM of LPA […] and ACI singly or together, followed by further culture for 1, 2, and 4 days. Proteins were extracted from the cultured cells and the levels of AMPKα, […] β-actin were quantified by immuno-blotting. (A) and (B) are photographs illustrating the results of immuno-blotting. Precisely, senescent cells (PD 64) were pre-treated with 10 mM of PKA inhibitor Rp-cAMP for one hour, followed by treatment with LPA(A) or ACI(B). After culturing the cells for 1, 2, and 4 days, proteins were extracted from the cultured cells and the levels of AMPKα, […] β-actin were quantified by immuno-blotting using 45 μg of the protein. To analyse protein expression, human fibroblasts were lysed in cold lysis buffer (25 mM Hepes, pH 8.0, 150 mM NaCl, 1 mM EDTA, 1 mM Na3VO4, 1 mM NaF, 1% Triton X-100 and protease inhibitors), followed by centrifugation at 4° C. at 9,000 rpm for 10 minutes to obtain supernatant. Protein in the extract was quantified […]. SDS-PAGE electrophoresis was performed with equal amount of the protein (45 μg) to separate. The separated protein was transferred onto NC membrane from the electrophoresis gel. Non-specific protein binding was blocked by blocking the blot (transferred NC membrane) using TTBS […] containing 5% skim milk for one hour. Then, antigen-antibody reaction was induced with diluted primary antibody at 4° C. for overnight. The blot was washed with TTBS, followed by reaction with horseradish peroxidase conjugated anti-IgGs diluted in TTBS containing 5% skim milk (1:5000) at room temperature for one hour. The blot was washed again with TTBS to eliminate non-specific binding of antigen-antibody. Photographs were developed/printed on X-ray film (Kodak) using ECL kit (Pierce) containing peroxidase substrate to identify each protein.

[1] = test system: senescent cells (human fibroblasts); experiment: Cell proliferation by counting live cells (trypan blue), senescent cells; type: cell-based; conditions: serum-starved 2 days, counted day 1, 2, 4, 30 μM LPA, 300 μM ACI, 10 mM AMPKI, 10 mM AICAR
Description: Human fibroblasts were prepared by primary culture of foreskin of a newborn baby (Boyce and Ham, 1983). The primary culture was performed in DMEM supplemented with 10% FBS and 1% antibiotics. The protein contents of young cells from the early stage of sub-culture, with a population doubling (PD) of less than 25, were compared to those of at least PD 65-70 senescent cells. […] In senescent cells, the activity of beta-galactosidase was increased and cell proliferation was reduced (Yeo et al., 2000).
Prior to LPA and ACI treatment, cells were grown for 1-2 days to 60-70% sub-confluence in DMEM-containing culture medium, and then serum-starved to quiescence (that is Go/G1 arrest) by incubation in a serum-free medium containing 0.1% bovine serum albumin (BSA) for 2 days. Young and senescent cells were treated with LPA, ACI, LPA+ACI, AMPKI and AICAR, respectively. Live cells were measured after staining the cells with trypan blue on day 1, day 2 and day 4 to confirm cell proliferation.
Cell proliferation and cAMP level were increased by LPA in senescent cells (Yeo et al., 2002). The AC inhibitor (ACI) was added to reduce cAMP which had been increased by LPA. And then, cell proliferation was investigated. Cells were cultured in serum-free medium for 2 days to arrest them in G0/G1 phase. Then, the cells were treated with LPA, ACI or LPA+ACI. Total cell number was measured on day 1, day 2 and day 4, or the cells entered into S phase were counted to evaluate cell proliferation. When young cells were treated with 300 μM of ACI, cell proliferation was reduced, compared with control (FIG. 1A). In the meantime, when senescent cells were treated with 300 μM of ACI, cell proliferation was increased, compared with control (FIG. 1B).

p-Ser431-LKB1 = experiment: Immuno-blotting of p-Ser431-LKB1; type: cell-based, human; conditions: 30 μM LPA, 300 μM ACI, 1, 2, 4 days
Description: FIG. 8 is a set of photographs illustrating the effects of LPA and ACI on LKB1 phosphorylation in senescent cells. Precisely, sub-cultured young cells (PD 18) and senescent cells (PD64) were treated with 30 μM of LPA or 300 μM of LPA and ACI singly or together. After culturing the cells for 1, 2, and 4 days, proteins were extracted from the cultured cells and the levels of LKB1, p-Ser431-LKB1 and β-actin were quantified by immuno-blotting using 45 μg of the protein.
To analyse protein expression, human fibroblasts were lysed in cold lysis buffer (25 mM Hepes, pH 8.0, 150 mM NaCl, 1 mM EDTA, 1 mM Na3VO4, 1 mM NaF, 1% Triton X-100 and protease inhibitors), followed by centrifugation at 4° C. at 9,000 rpm for 10 minutes to obtain supernatant. Protein in the extract was quantified […]. SDS-PAGE electrophoresis was performed with equal amount of the protein (45 μg) to separate. The separated protein was transferred onto NC membrane from the electrophoresis gel. Non-specific protein binding was blocked by blocking the blot (transferred NC membrane) using TTBS […] containing 5% skim milk for one hour. Then, antigen-antibody reaction was induced with diluted primary antibody at 4° C. for overnight. The blot was washed with TTBS, followed by reaction with horseradish peroxidase conjugated anti-IgGs diluted in TTBS containing 5% skim milk (1:5000) at room temperature for one hour. The blot was washed again with TTBS to eliminate non-specific binding of antigen-antibody. Photographs were developed/printed on X-ray film (Kodak) using ECL kit (Pierce) containing peroxidase substrate to identify each protein.
It has been recently discovered that the tumor suppressor gene LKB1 is a member of AMPKK family (Hawley et al., 2003; Shaw et al., 2004; Woods et al., 2003a). Ser431-LKB1 phosphorylation promotes cell growth in the activated form of LKB1 (Sapkota et al., 2001). So, in this experiment, it was examined what effect the single treatment or co-treatment of LPA and ACI has on the expressions of p-Ser431-LKB1, LKB1 and β-actin (FIG. 8). […] Meanwhile, LKB1 expression therein was not changed.

Row | Compound | p-Ser15-p53 expression after suppressing PKA (p-Ser15-p53) | p-Ser15-p53 expression (p-Ser15-p53) | cell proliferation (cell number) compared with control [1] | Ser431-LKB1 phosphorylation (p-Ser431-LKB1; senescent cells) | Ser431-LKB1 phosphorylation (p-Ser431-LKB1; young cells)
1 | Nc1ncnc2c1ncn2C1CCCO1 (stereo not shown) [ACI, 9-(tetrahydro-2′-furyl)adenine] | not changed | reduced | increased | reduced | increased
2 | lysophosphatidic acid [LPA] | not changed at all | reduced | increase | gradually increased | gradually reduced

From patent US20110124607A1, “COMPOSITION FOR REGULATION CELLULAR SENESCENCE COMPRISING LYSOPHOSPHATIDIC ACID AND INHIBITOR OF ADENYLYL CYCLASE AS ACTIVE INGREDIENTS” (priority 2008, published 2011)
